From patent US20230226027A1, “THIENOPYRIDINE DERIVATIVES FOR USE IN THE TREATMENT OF CORONAVIRUS INFECTION” (INSERM (INSTITUT NATIONAL DE LA SANTÉ ET DE LA RECHERCHE …, priority 2020, published 2023)
Like-named read-outs stand apart in the source and are kept apart here.

Experiments:
[1] = tested on: SARS-CoV-2; format: cell-based; conditions: VeroE6 cells, 1 h pretreatment, MOI 0.001, viral RNA in supernatant 24 hours post-infection (FIG. 1)
[2] = tested on: SARS-CoV-2; format: cell-based; conditions: Calu-3 cells, 2 h pre-treatment, MOI 0.001, 24 hours post-infection (FIGS. 2A-2B)
[3] = tested on: SARS-CoV-2; format: cell-based; conditions: Calu-3 cells, concentration ≥ 10 µM, even when given 4 h post-infection, TCID50 24 hours post-infection (FIG. 4)
[4] = tested on: Calu-3 cells; assay: Cellular viability assay (MTT) in Calu-3 cells; format: cell-based, human; conditions: 24 hours of treatment, MTT (FIG. 3)
Procedure: FIG. 3. Analysis of cellular viability in human lung epithelial Calu-3 cells treated with AM-001. Calu-3 cells treated for 24 hours with the indicated concentrations of AM-001. Cellular viability was measured with the Cell Proliferation Kit I (MTT) (Roche Applied Science, Indianapolis, IN) according to the manufacturer’s protocol.
Calu-3 cells were plated 48 hours before treatment in 96-wells plates at a density of 1.10^5 cells per well. After 24 hours of treatment with the different concentrations of AM-001, cells viability was measured using the Cell Proliferation Kit I (MTT) (Roche Applied Science, Indianapolis, IN) according to the manufacturer’s protocol.

SMILES: Nc1c(C(=O)Nc2ccc(F)cc2)sc2nc(-c3cccs3)cc(-c3ccccc3)c12 [AM-001]
- replication of SARS-CoV-2 [1]: Inhibition of SARS-CoV-2 replication
- replication of SARS-CoV-2 ([1]; listed as AM001): significantly decreases the replication
- SARS CoV-2 replication (viral RNA and infectious particles in supernatant) [2]: inhibit SARS CoV-2 replication
- infectious virus production [3]: totally blocks infectious virus production
- cellular toxicity [4]: no detected cellular toxicity
